Experimental data from patent publication US20190308987A1, “DUAL MODULATORS OF BOTH MU AND KAPPA OPIOID RECEPTORS” (priority 2016, published 2019).

Assays:
[1] = molecular target: T1, DOR (Homo sapiens, UniProt P41143); experiment: [35S]GTPγS-binding assay, DOR-expressing CHO cell membranes; assay type: biochemical
T1 construct: expressed in transfected cells; host or cells: CHO cells (membranes)
Experimental: (§1) [^35S]-GTPγS-Binding Assays using DOR- or KOR-Expressing CHO Cell Lines: Cell membranes (10 μg protein) were incubated with 10 μM GDP and 0.1 nM [^35S]-GTPγS in assay buffer in the presence and absence of varying concentrations of BNAP, 3 μM SNC80 (standard full agonist at DOR) or 3 μM U50,488H (standard full agonist at KOR) for 90 min at 30° C. Nonspecific binding was determined with 10 μM unlabeled GTPγS. The reaction was terminated and bound radioactivity determined as described above and previously.^9
(§2) All samples were assayed in triplicate and repeated at least twice for a total of 3 independent determinations. Results were reported as mean values±SEM. Concentration-effect curves were fit by nonlinear regression to a one-site binding model, using GraphPad Prism software, to determine EC50 and Emax values. IC50 values were obtained from Hill plots and analyzed by linear regression using Microsoft Excel software. Binding Ki values were determined from IC50 values using the Cheng-Prusoff equation: Ki=IC50/l+([L]/KD), where [L] is the concentration of […] and KD is the KD of the radioligand.

[2] = molecular target: T2, kappa opioid receptor (KOR) (Homo sapiens, UniProt P41145); experiment: Competitive radioligand binding, KOR ([3H]nor-BNI)
T2 construct: expressed in transfected cells; host or cells: CHO cells (membranes)
Experimental: (§3) The details of the Radioligand Binding and Functional Studies that were used were described previously.^19 Chinese hamster ovarian (CHO) cell lines were used as monoclonal opioid receptor expressing cells. The μ, δ, and κ opioid receptors were labeled with [^3H]naloxone, ^3H-naltrindole ([^3H]NTI) and ^3H-nor-Binaltorphimine ([^3H]norBNI). The opioid receptor expressing cell membranes were incubated with the radioligands at different concentrations of the drug under investigation at 30° C. for 1 h. With the absence and presence of 10 μM naltrexone, specific binding was got as the difference in binding obtained. The specific binding of the drugs to the radioligand was calculated from data using linear regression analysis of Hill plots.
as §2

[3] = molecular target: T3, mu opioid receptor (MOR) (Mus musculus, UniProt P42866); experiment: Competitive radioligand binding, MOR ([3H]naloxone); details: mean ± SEM of three experiments
T3 construct: expressed in transfected cells; host or cells: CHO cells (membranes)
Experimental: as §3, §2

[4] = tested on: mouse proximal colon circular muscle; experiment: Colon circular muscle isometric tension recordings, proximal colon
Experimental: (§4) Mice were euthanized by cervical dislocation. The colon was dissected, flushed of its contents, and trimmed of mesentery. […] The tissues, 0.5 cm in length, were suspended vertically along the axis of the circular muscle with a metal triangle tied to a hook under 1 g of passive tension in 15 mL siliconized organ baths.
(§5) Data are presented as the mean±S.E.M, values of P≤0.05 were considered significant.

[5] = tested on: morphine antinociception; experiment: Warm water tail immersion (tail flick) test; assay type: in vivo, Swiss Webster mice
Experimental: Male Swiss Webster mice (Harlan Laboratories, Indianapolis, Ind.) weighing 25-30 g were housed 5 to a cage in animal care quarters and maintained at […] on a 12 h light-dark cycle. Food and water were available ad libitum. The mice were brought to a test room (22±2° C., 12 h light-dark cycle), marked for identification and allowed 18 h to recover from transport and handling. Protocols and procedures were approved by the Institutional Animal Care and Use Committee (IACUC) at Virginia Commonwealth University Medical Center and comply with the recommendations of the IASP (International Association for the Study of Pain).
The warm water tail-immersion test was performed according to previously described methods using a water bath with the temperature maintained at 56±0.1° C.^20 Briefly, before giving the mice injections, a baseline (control) latency was determined. Only mice with a control reaction time of 2 to 4 s were used. The average baseline latency for these experiments was 3.0±0.1 s. The test latency after drug treatment was assessed at the appropriate time, and a 10 s maximal cutoff time was imposed to prevent tissue damage. Antinociception was quantified according to established procedures as the percentage of maximum possible effect (% MPE), which was calculated as follows: % MPE=[(test latency−control latency)/(10−control latency)]×100.^21 Percentage MPE was calculated for each mouse, using at least six mice per group.
Intracerebroventricular (ICV) injections were performed as described previously.^22 Mice were anesthetized with 2.5% isoflurane and a horizontal incision was made in the scalp. A needle was inserted to a depth of 3 mm into the lateral ventrical (2 mm rostral and 2 mm lateral at a 45° angle from the bregma). At intervals, 5 μL injections of drug or vehicle were made using this guide insertion to the same depth using a needle with a guard in nonanesthetized animals.^22, 23 Animals underwent the anesthetized surgery in the morning of the experiment and were then injected with drug at intervals indicated in the text without additional anesthesia. Immediately after testing, the animals were euthanized to minimize any type of distress, according to IACUC guidelines.

[6] = tested on: colonic motility; experiment: Colonic bead expulsion assay; assay type: in vivo, mice
Experimental: Mice were habituated and fasted as described above for the gastrointestinal transit analysis. […] At 20 min post-injection, animals were anesthetized with isoflurane (1-2 min) to insert a single 2-mm glass bead into the distal colon at a distance of 3 cm from the anus. Bead insertion was accomplished using a glass rod with a fire-polished end to avoid tissue damage and marked at 3 cm.^25 After bead insertion, mice were placed in individual cages and the time to bead expulsion was monitored. Animals were monitored for a maximum of 2 h unless bead expulsion occurred sooner.

[7] = tested on: mouse distal colon circular muscle; experiment: Colon circular muscle isometric tension recordings, distal colon
Experimental: as §4, §5

[8] = molecular target: T4, KOR (Homo sapiens, UniProt P41145); experiment: [35S]GTPγS-binding assay, KOR-expressing CHO cell membranes; assay type: biochemical
T4 construct: expressed in transfected cells; host or cells: CHO cells (membranes)
Experimental: as §1, §2

O=C(N[C@@H]1CC[C@@]2(O)[C@H]3Cc4ccc(O)c5c4[C@@]2(CCN3CC2CC2)C1O5)c1cc[n+](Cc2ccccc2)cc1 (stereo partly drawn) [BNAP]
EC50 ([1]; 35S-GTP[γS]): 108 ± 69 nM | % max of agonist ([1]; Emax relative to full agonist SNC80): 9.2±2.2% | Ki ([2]; KOR, [3H]nor-BNI, read-out: Ki (nM) ± SEM): 3.46 ± 0.05 nM | Selectivity (κ/μ) ([2]; ratio of Ki KOR/MOR): 4.6 | Ki [3]: 0.76 ± 0.09 nM | inhibition of morphine-induced contractions ([4]; 1 nM antagonist, proximal colon): neither NAP nor BNAP showed significant inhibition of morphine-induced contractions | morphine pD2 in presence of antagonist ([4]; 10 nM antagonist, proximal colon (naive 6.8)): 5.9 | further reduction of morphine pD2 ([4]; 100 nM versus 10 nM antagonist, proximal colon): no further reduction of the morphine pD2 | contractions induced by compound alone ([4]; up to 30 μM, proximal colon preparation): Neither BNAP nor NAP alone at concentrations up to 30 μM induced contractions | antinociception of compound alone ([5]; 1.0 μg/5 μL ICV, compared to morphine alone): did not produce significant antinociception | antagonism of morphine antinociception ([5]; 10 mg/kg s.c., any morphine dose tested): did not significantly antagonize morphine antinociception | antinociceptive effect of compound alone ([5]; 10 mg/kg s.c., warm water tail flick, mice): did not produce significant antinociceptive effects | dose giving complete reversal of morphine antinociception ([5]; ICV, dose dependent reversal): 0.3 μg/5 μL | bead expulsion time ([6]; BNAP alone 10 mg/kg, naive mice 17 min): 43 min | antagonism of morphine's effect on bead expulsion ([6]; BNAP concurrently or 5 or 15 min before morphine): no significant antagonism of morphine's effects was observed | inhibition of morphine-induced contractions ([7]; 1 nM antagonist, distal colon): neither NAP nor BNAP showed significant inhibition of morphine-induced contractions | antagonism of morphine effects ([7]; 10 nM antagonist, distal colon): neither NAP nor BNAP showed significant antagonism of morphine effects | morphine pD2 in presence of antagonist ([7]; 100 nM antagonist, distal colon (naive 6.0)): 5.2 | contractions induced by compound alone ([7]; up to 30 μM, distal colon preparation): Neither BNAP nor NAP alone at concentrations up to 30 μM induced contractions | EC50 ([8]; 35S-GTP[γS]): 2.9 ± 1.1 nM | % max of agonist ([8]; Emax relative to full agonist U50,488H): 45.9±1.7%
